Data: patent US12509431B2, “1,4-dihydroquinazolinone compounds and uses thereof” (Edgewise Therapeutics, Inc., priority 2022, dated 2025)

Assays:
Type in all cases: biochemical
Conditions in all cases: Table 7
[1] = target: T1, Porcine Ventricle myofibrils (left ventricle of Yucatan minipigs) (Sus scrofa, UniProt P79293); assay: Myofibril ATPase assay (PK/LDH NADH-coupled), ventricle myofibrils
T1 construct: Myofibrils from porcine cardiac muscle was isolated from the left ventricle of Yucatan minipigs; tissue Exemplar Genetics; host or cells: left ventricle of Yucatan minipigs
Procedure, shortened: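 NADH depletion (A340) coupled through pyruvate kinase/lactate dehydrogenase reports ATPase rate of porcine left-ventricle myofibrils over 75 min kinetic reads. Regression slopes, vehicle-normalized, fitted by 4-parameter logistic give EC25 and, where available, EC50.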

Porcine Atria myofibrils = assay: Myofibril ATPase assay (PK/LDH NADH-coupled), atria myofibrils
Procedure, shortened: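 Values are EC25% (and, for inhibitors, EC50%) from 4-parameter logistic fits of activity normalized to vehicle wells. Rates came from linear regression of 340 nm kinetic reads (every 1.5-2 min, 75 min) of NADH-coupled ATP turnover by porcine atria myofibrils.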

[2] = tested on: Rabbit Skeletal myofibrils (rabbit psoas muscle); assay: Myofibril ATPase assay (PK/LDH NADH-coupled), skeletal myofibrils
Procedure, shortened: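 ATPase rate taken as linear-regression slope of A340 (NADH depletion through PK/LDH coupling) over a 75 min kinetic read, with psoas-derived rabbit skeletal myofibrils at pH 7.0. Four-parameter fits of vehicle-normalized activity give EC25 and, where reached, EC50.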

T1 sequence (P79293 whole entry): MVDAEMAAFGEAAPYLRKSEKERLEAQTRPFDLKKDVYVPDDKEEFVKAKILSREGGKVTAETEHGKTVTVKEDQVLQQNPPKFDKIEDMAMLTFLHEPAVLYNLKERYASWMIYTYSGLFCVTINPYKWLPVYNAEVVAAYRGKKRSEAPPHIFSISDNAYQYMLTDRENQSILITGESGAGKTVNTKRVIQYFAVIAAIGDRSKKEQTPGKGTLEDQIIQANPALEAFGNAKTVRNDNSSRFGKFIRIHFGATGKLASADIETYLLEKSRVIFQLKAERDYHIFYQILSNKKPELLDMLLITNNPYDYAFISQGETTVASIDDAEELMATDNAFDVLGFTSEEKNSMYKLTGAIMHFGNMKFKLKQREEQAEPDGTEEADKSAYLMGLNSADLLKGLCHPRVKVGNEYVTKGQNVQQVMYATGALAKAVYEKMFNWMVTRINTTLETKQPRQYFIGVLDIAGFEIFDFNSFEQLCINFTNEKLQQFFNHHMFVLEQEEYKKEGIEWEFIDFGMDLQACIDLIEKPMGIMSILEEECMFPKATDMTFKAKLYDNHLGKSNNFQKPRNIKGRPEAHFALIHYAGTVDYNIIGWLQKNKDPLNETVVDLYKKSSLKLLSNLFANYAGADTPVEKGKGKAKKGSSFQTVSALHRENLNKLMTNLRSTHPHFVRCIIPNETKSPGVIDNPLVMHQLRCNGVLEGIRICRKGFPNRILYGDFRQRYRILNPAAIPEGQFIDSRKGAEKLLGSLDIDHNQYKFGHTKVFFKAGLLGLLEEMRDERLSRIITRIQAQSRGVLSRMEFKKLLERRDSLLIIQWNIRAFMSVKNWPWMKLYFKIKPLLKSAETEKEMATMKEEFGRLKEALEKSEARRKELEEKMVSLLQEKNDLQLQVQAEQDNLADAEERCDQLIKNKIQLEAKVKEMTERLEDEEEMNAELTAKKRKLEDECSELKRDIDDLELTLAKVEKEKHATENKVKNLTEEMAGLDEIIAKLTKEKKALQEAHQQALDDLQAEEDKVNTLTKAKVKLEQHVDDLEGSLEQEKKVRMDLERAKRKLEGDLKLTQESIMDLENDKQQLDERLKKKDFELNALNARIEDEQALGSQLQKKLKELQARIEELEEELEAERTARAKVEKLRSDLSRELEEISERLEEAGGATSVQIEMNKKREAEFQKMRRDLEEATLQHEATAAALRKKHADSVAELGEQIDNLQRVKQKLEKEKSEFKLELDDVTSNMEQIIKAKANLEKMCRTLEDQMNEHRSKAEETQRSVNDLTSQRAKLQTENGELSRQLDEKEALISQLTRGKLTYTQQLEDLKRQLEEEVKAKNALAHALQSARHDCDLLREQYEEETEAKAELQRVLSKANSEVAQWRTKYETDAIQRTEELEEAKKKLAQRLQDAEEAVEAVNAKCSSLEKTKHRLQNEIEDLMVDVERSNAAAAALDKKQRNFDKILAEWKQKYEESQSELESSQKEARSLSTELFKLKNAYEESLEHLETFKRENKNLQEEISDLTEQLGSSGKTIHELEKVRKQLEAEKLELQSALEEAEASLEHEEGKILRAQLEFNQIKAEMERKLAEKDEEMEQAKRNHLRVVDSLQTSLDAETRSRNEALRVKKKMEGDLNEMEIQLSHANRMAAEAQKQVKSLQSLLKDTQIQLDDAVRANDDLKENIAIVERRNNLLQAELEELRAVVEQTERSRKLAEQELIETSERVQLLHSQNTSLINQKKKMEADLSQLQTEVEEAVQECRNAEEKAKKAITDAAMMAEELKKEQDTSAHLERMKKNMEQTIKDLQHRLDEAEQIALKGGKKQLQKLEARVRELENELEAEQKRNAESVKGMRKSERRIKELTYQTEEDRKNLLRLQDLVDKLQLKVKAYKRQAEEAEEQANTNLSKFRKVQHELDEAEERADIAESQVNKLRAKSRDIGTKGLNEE

Row | SMILES | Porcine Ventricle IC25 [1] [nM] | Porcine Atria IC25 (Porcine Atria myofibrils) [nM] | Rabbit Psoas IC25 [2] [nM]
1 | C[C@H](NC(=O)CN1Cc2nc(C(F)(F)F)ccc2NC1=O)c1ccc(F)cc1F [Compound N112, N-[(1S)-1-(2,4-Difluorophenyl)ethyl]-2-[2-oxo-6-(trifluoromethyl)-1H,4H-pyrido[3,2-d]pyrimidin-3-yl]acetamide] | 9823 | 230 | 296.8
2 | C[C@H](NC(=O)[C@H](C)N1Cc2c(ccnc2Cl)NC1=O)c1ccc(F)cc1F [Compound N114] | 8373 | 2300 | 289.2
3 | C[C@H](NC(=O)[C@@H](C)N1Cc2c(ccnc2Cl)NC1=O)c1ccc(F)cc1F [Compound N115] | 751.6 | 510 | 22.8
4 | COc1ccc2c(n1)CN(CC(=O)N[C@@H](C)c1ccc(F)cc1F)C(=O)N2 [Compound N119] | 3289 | 570 | 119.6
5 | CC(C)Oc1nccc2c1CN(CC(=O)N[C@@H](C)c1ccc(F)cc1F)C(=O)N2 [Compound N120] | 27230 | 100000 | 423.9
6 | CCOc1nccc2c1CN(CC(=O)N[C@@H](C)c1ccc(F)cc1F)C(=O)N2 [Compound N121] | 5985 | 510 | 21.8
7 | C[C@H](NC(=O)CN1Cc2c(ccnc2OCC(F)F)NC1=O)c1ccc(F)cc1F [Compound N122] | 11420 | 360 | 56.7
8 | C[C@H](NC(=O)CN1Cc2c(ccnc2F)NC1=O)c1ccc(F)cc1F [Compound N124] | 245.2 | 80 | 50.3
9 | COc1nccc2c1CN(CC(=O)N[C@@H](C)c1ccc(F)cc1F)C(=O)N2 [Compound N125, N-[(1S)-1-(2,4-Difluorophenyl)ethyl]-2-{5-methoxy-2-oxo-1H,4H-pyrido[4,3-d]pyrimidin-3-yl}acetamide] | 2663 | 680 | 42.3
10 | C[C@H](NC(=O)CN1Cc2c(ccnc2C(F)(F)F)NC1=O)c1ccc(F)cc1F [Compound N126] | 4027 | 600 | 75.62
11 | C[C@H](NC(=O)CN1Cc2c(ccnc2Cl)NC1=O)c1ccc(F)cc1F [Compound N128, 2-{5-Chloro-2-oxo-1H,4H-pyrido[4,3-d]pyrimidin-3-yl}-N-[(1S)-1-(2,4-difluorophenyl)ethyl]acetamide] | 253.3 | 80 | 41.8
12 | Cc1nccc2c1CN(CC(=O)N[C@@H](C)c1ccc(F)cc1F)C(=O)N2 [Compound N129, N-[(1S)-1-(2,4-Difluorophenyl)ethyl]-2-{5-methyl-2-oxo-1H,4H-pyrido[4,3-d]pyrimidin-3-yl}acetamide] | 4847 | 4200 | 559
13 | C[C@H](NC(=O)CN1Cc2cnccc2NC1=O)c1ccc(Cl)cc1 [Compound N131] | 100000 | 36110 | 8051
14 | Cc1cc(F)ccc1[C@H](C)NC(=O)CN1Cc2cnccc2NC1=O [Compound N132] | 97090 | 3750 | 1636
15 | C[C@H](NC(=O)CN1Cc2cnccc2NC1=O)c1ccc(F)cc1F [Compound N133] | 13900 | 2800 | 839.1

Other lines, results leading:

Row | Porcine Ventricle IC25 [1] [nM] | Porcine Atria IC25 (Porcine Atria myofibrils) [nM] | Rabbit Psoas IC25 [2] [nM] | SMILES
16 | 73850 | 22120 | 328.1 | C[C@H](NC(=O)CN1Cc2nc(OC3CC3)ccc2NC1=O)c1ccc(F)cc1F [Compound N113]
17 | 40220 | 4380 | 191.4 | C[C@H](NC(=O)CN1Cc2c(ccnc2OC2CC2)NC1=O)c1ccc(F)cc1F [Compound N116]
18 | 379.5 | 170 | 14.6 | C[C@H](NC(=O)CN1Cc2nc(Cl)ccc2NC1=O)c1ccc(F)cc1F [Compound N117, 2-{6-Chloro-2-oxo-1H,4H-pyrido[3,2-d]pyrimidin-3-yl}-N-[(1S)-1-(2,4-difluorophenyl)ethyl]acetamide]
19 | 5896 | 750 | 152 | CCOc1ccc2c(n1)CN(CC(=O)N[C@@H](C)c1ccc(F)cc1F)C(=O)N2 [Compound N118]
20 | 859.2 | 70 | 35.14 | C[C@H](NC(=O)CN1Cc2nc(F)ccc2NC1=O)c1ccc(F)cc1F [Compound N123]
21 | 73050 | 3120 | 293.1 | C[C@H](NC(=O)CN1Cc2c(ccnc2C2CC2)NC1=O)c1ccc(F)cc1F [Compound N127, 2-[5-Cyclopropyl-2-oxo-1H,4H-pyrido[4,3-d]pyrimidin-3-yl]-N-[(1S)-1-(2,4-difluorophenyl)ethyl]acetamide]
22 | 100000 | 1540 | 688 | O=C(CN1Cc2cnccc2NC1=O)N[C@H]1CCCc2cc(F)cc(F)c21 [Compound N130]
23 | 100000 | 6420 | 100000 | N#Cc1cnc2c(n1)CC[C@H]2NC(=O)CN1C(=O)Nc2ccc(C#N)nc2C12CC2 [Compound N135]
24 | 10900 | 290 | 100000 | N#Cc1cnc2c(n1)CC[C@@H]2NC(=O)CN1C(=O)Nc2ccc(C#N)nc2C12CC2 [Compound N136]
